In brackets after ≈: the same amount, converted by molar mass. Where two headings read alike, the source gives them in different places.
Experiments:
[1] = solubility in pharmaceutically acceptable solvent systems, HPLC assay of filtrate; assay type: physicochemical
Procedure: The solubilities of NUC-1031 and its diastereoisomers were determined in a range of pharmaceutically acceptable solvent systems. The protocol adopted was as follows:
A small volume, 1-2 mL, of each solvent system was prepared and a weight of the compound in question was added. The solutions were stirred for approximately 4 hours and then […] membrane filtered. The concentration of the compound in question in the filtrate was then determined by HPLC assay.

[2] = metabolic stability in pooled human cryopreserved hepatocyte suspension, HPLC-MS/MS; assay type: in vitro ADME; settings: both sexes, human, hepatocytes
Procedure: (§1) The clearance and bioavailability of most medicines are strongly influenced by their first-pass metabolism in the liver. It is possible to estimate the relative hepatic “metabolic stability” in vitro by incubating compounds with cryopreserved hepatocytes and determining the initial vs. the final amount of the test compound in the incubation mixtures.
(§2) The following procedure is an HPLC-MS/MS assay using pooled human cryopreserved hepatocyte suspension.
(§3) Human hepatocytes: mixed gender and pool of 10
(§4) Final cell density: 1 million (10^6) viable cells/mL
(§5) Pooled cryopreserved hepatocytes are thawed, washed, and resuspended in Krebs-Heinslet buffer (pH 7.3). The reaction is initiated by adding the test compound (1 μM final concentration) into cell suspension and incubated in a final volume of 100 μL on a flat-bottom 96-well plate for 0 minute and 120 minutes, respectively, at 37° C./5% CO2. The reaction is stopped by adding 100 μL of acetonitrile into the incubation mixture. Samples are then mixed gently and briefly on a plate shaker, transferred completely to a 0.8 mL V-bottom 96-well plate, and centrifuged at 2550×g for 15 minutes at room temperature. Each supernatant (150 μL) is transferred to a clean cluster tube, followed by HPLC-MS/MS analysis on a Thermo Electron triple-quadrupole system.
(§6) This assay was modified for half-life determination. In this case, the sampling time points are 0, 30, 60, 90, and 120 minutes.
(§7) Four reference compounds (1 μM) were tested simultaneously with the test compounds.
(§8) Samples are analyzed via (RP)HPLC-MS/MS using selected reaction monitoring (SRM). The HPLC conditions consist of an HP1100 binary pump with autosampler, a C-12 mixed-mode, 2×20 mm column, and a gradient.
(§9) Peak areas corresponding to the test compound are recorded by HPLC-MS/MS. The metabolic stability, expressed as percent of the test compound remaining, is calculated by comparing the peak areas of the test compound at 2 hours to time zero. In case of half-life determination, the half-life is estimated from the slope of the initial linear range of the logarithmic curve of the test compound remaining (%) vs. time, assuming first order kinetics.

[3] = aqueous solubility of NUC-1031 (background statement); assay type: physicochemical; settings: regardless of salt content or pH
[4] = system: pooled human cryopreserved hepatocytes; experiment: metabolic stability in pooled human cryopreserved hepatocyte suspension, HPLC-MS/MS; assay type: in vitro ADME; settings: reference compounds, 1 μM
Procedure: as §1, §2, §3, §4, §5, §6, §7, §8, §9

[5] = 10% mixtures of polar organic solvents in water
[6] = 50% PEG400 by volume in water, aqueous with cosolvent or surfactant or cyclodextrin, thermodynamic from solid, PEG400 (50%) by volume in water, read-out: Solubility
[7] = 50% ethanol by volume in water, aqueous with cosolvent or surfactant or cyclodextrin, thermodynamic from solid, ETHANOL (50%) by volume in water, read-out: Solubility
[8] = 50% propylene glycol by volume in water, aqueous with cosolvent or surfactant or cyclodextrin, thermodynamic from solid, PROPYLENE GLYCOL (50%) by volume in water, read-out: Solubility
[9] = mixtures of polar organic solvents with water

Structure (SMILES) | solubility [1, 5] | solubility [1, 6] | solubility [1, 7] | solubility [1, 8] | solubility [1, 9] | half-life at 1 μM ([2]; pH 7.3, Half-Life 1st) | half-life at 1 μM ([2]; pH 7.3, Half-Life 2nd) | half-life at 1 μM ([2]; pH 7.3, Half-Life 3rd) | stability with human hepatocytes [4] | further results
C[C@H](N[P@@](=O)(OC[C@H]1O[C@@H](n2ccc(N)nc2=O)C(F)(F)[C@@H]1O)Oc1ccccc1)C(=O)OCc1ccccc1 [compound 4, 2′-deoxy-2′,2′-difluoro-D-cytidine-5′-O-[phenyl(benzyloxy-L-alaninyl)]-(R)-phosphate] | substantially insoluble | 270 µg/mL (≈ 0.465 mM) | 690 µg/mL (≈ 1.19 mM) | 110 µg/mL (≈ 0.189 mM) | substantially insoluble | 7.86 h | > 2 h | > 2 h | – | half-life at 1 μM ([2]; pH 7.3, Half-Life Mean): > 2 h
C[C@H](NP(=O)(OC[C@H]1O[C@@H](n2ccc(N)nc2=O)C(F)(F)C1O)Oc1ccccc1)C(=O)OCc1ccccc1 (stereo partly shown) [NUC-1031] | – | – | – | – | – | 1.22 h | 1.21 h | 1.37 h | – | solubility ([1]; organic solvent or mixture, thermodynamic from solid, solvent DMSO, read-out: Assay (solubility)): > 217000 µg/mL; solubility ([1]; organic solvent or mixture, thermodynamic from solid, solvent NMP, read-out: Assay (solubility)): > 207000 µg/mL; solubility ([1]; organic solvent or mixture, thermodynamic from solid, solvent PEG 400, read-out: Assay (solubility)): 385000 µg/mL (≈ 663 mM); solubility ([1]; organic solvent or mixture, thermodynamic from solid, solvent Propylene glycol, read-out: Assay (solubility)): 371000 µg/mL (≈ 639 mM); Appearance ([1]; solvent DMSO): Clear solution; Appearance ([1]; solvent Ethanol): Solubilised quickly, after 30; Appearance ([1]; solvent Glycerol): API evident; Appearance ([1]; solvent NMP): Clear solution; Appearance ([1]; solvent PEG 400): Precipitation evident after 120; Appearance ([1]; solvent Propylene glycol): Precipitation evident after 30; solubility in water [3]: essentially insoluble in water
CCN(CC)CCN1C(=O)CN=C(c2ccccc2F)c2cc(Cl)ccc21 [flurazepam, reference compound] | – | – | – | – | – | – | – | – | relatively unstable | –
C[C@H](N[P@](=O)(OC[C@H]1O[C@@H](n2ccc(N)nc2=O)C(F)(F)C1O)Oc1ccccc1)C(=O)OCc1ccccc1 (stereo partly drawn) [compound 3, 2′-Deoxy-2′,2′-difluoro-D-cytidine-5′-O-[phenyl(benzyloxy-L-alaninyl)]-(S)-phosphate] | significantly improved solubility | 32100 µg/mL (≈ 55.4 mM) | 34800 µg/mL (≈ 59.9 mM) | 11300 µg/mL (≈ 19.4 mM) | sufficient solubility | 0.675 h | 0.608 h | 0.583 h | – | solubility ([1]; 10% PEG400 by volume in water, aqueous with cosolvent or surfactant or cyclodextrin, thermodynamic from solid, PEG400 (10%) by volume in water, read-out: Solubility): 460 µg/mL (≈ 0.792 mM); solubility ([1]; 10% ethanol by volume in water, aqueous with cosolvent or surfactant or cyclodextrin, thermodynamic from solid, ETHANOL (10%) by volume in water, read-out: Solubility): 270 µg/mL (≈ 0.465 mM); solubility ([1]; 10% propylene glycol by volume in water, aqueous with cosolvent or surfactant or cyclodextrin, thermodynamic from solid, PROPYLENE GLYCOL (10%) by volume in water, read-out: Solubility): 230 µg/mL (≈ 0.396 mM); difference in solubility between (S)-epimer and (R)-epimer ([1]; in a number of the solvent mixtures tested): over 100 fold
C=CCN1CC[C@]23c4c5ccc(O)c4O[C@H]2C(=O)CC[C@@]3(O)[C@H]1C5 [naloxone, reference compound] | – | – | – | – | – | – | – | – | relatively unstable | –

— patent US11629164B2, “Gemcitabine prodrugs” (NuCana plc, priority 2014, dated 2023)
